In US20240034758A1, “NOVEL PEPTIDE AND USE THEREOF” (MEDI & GENE, priority 2020, published 2024):

System: mHypoE-N41 hypothalamic cells
Experiment: Expression of appetite-promoting genes in hypothalamic cells
Type: cell-based
Conditions: 100 nM, 24 hours; vs PBS control
Method: Furthermore, to confirm the appetite-regulating effect of the functional peptide in mHypoE-N41 hypothalamic cells, the hypothalamic cells were treated with PBS (control) and 100 nM mouse-derived functional peptide (experimental group) for 24 hours.

Row | Substance | decrease of Agrp gene level compared to the control [%] | decrease of NPY gene level compared to the control [%]
1 | human-derived functional peptide: Human IF1-derived peptide, SEQ ID NO: 2: GSDQSENVDRGAGSIREAGGAFGKREQAEEERYFRAQSREQLAALKK (listed as Homo sapiens) | 47.5 | 59.6
2 | mouse-derived functional peptide: Mouse IF1-derived peptide, SEQ ID NO: 1: VSDSSDSMDTGAGSIREAGGAFGKREKAEEDRYFREKTKEQLAALRK (listed as Mus musculus) | 50.2 | 48.8
